According to publication PMC7801115, “Preclinical in vitro screening of newly synthesised amidino substituted benzimidazoles and benzothiazoles” (Journal of Enzyme Inhibition and Medicinal Chemistry, 2021):
Read-outs that look alike come from different tables or passages of the source.

Experiments:
[1] = Plasma protein binding, equilibrium dialysis; assay type: in vitro ADME; conditions: for fraction unbound at 4 h, 5 µM: equilibrium dialysis 4 h, 37 °C; for recovery at 4 h, 5 µM: recovery in PPB experiment (value in brackets)
Description: The extent of binding to plasma proteins was assessed using equilibrium dialysis method. Plasma (human and mouse) was spiked with test compounds and three controls (nicardipine and verapamil in both species, acebutolol in human and caffeine in mouse plasma) to obtain final concentration of 5 µM (0.5%DMSO). Hydrated membranes were inserted into equilibrium dialysis unit (HT Dialysis) according to manufacturer’s instructions. The dialysate side was then loaded with appropriate volume of buffer, while the same volume of spiked plasma was added into sample side of the well. Incubation lasted 4 h at 37 °C with gentle shaking. Afterwards, protein precipitation was done by mixing matrix matched aliquot of plasma or buffer with 3 volumes of MeCN/MeOH (2:1) mixture, containing internal standard (diclofenac). After centrifugation (at 4500 rpm, at 4 °C, for 30 min) resulting supernatants were subjected to LC-MS/MS.
(§1) All ADME samples were analysed on a Sciex API 4000 or Sciex API4500 Triple Quadrupole Mass Spectrometer (Sciex, Framingham, MA, USA) coupled to a UHPLC System (Shimadzu Nexera X2; Shimadzu, Kyoto, Japan). Samples were injected onto an UPLC column (HALO2 C18, 2.1 × 20 mm, 2 µm or Phenomenex Luna Omega Polar C18, 30 × 2.1 mm, 1.6 µm) and eluted with a gradient at temperature of 50 °C. The mobile phase was composed of acetonitrile (with 0.1% formic acid) and 0.1% formic acid in deionised water. A total run time was 1 or 1.5 min, with the flow rate of 0.7 ml/min (under gradient conditions). A positive ion mode with turbo spray, an ion source temperature of 500 °C and a dwell time of 150 ms were utilised for mass spectrometric detection. Multiple reaction monitoring (MRM) was used at the specific transitions for each compound/control tested: compound 5c: 361.9 → 304.9; compound 5d: 344.8 → 287.9; compound 5e: 349.8 → 292.9; compound 5 g: 350.8 → 293.9; compound 5 h: 344.0 → 286.9; compound 6a: 276.9 → 220.0; compound 5 b: 319.0 → 262.0; compound 6 b: 302.1 → 245.1; compound 6c: 344.9 → 288.0; compound 6d: 333.0 → 276.0; compound 6e: 316.1 → 259.0; compound 6f: 327.1 → 270.0; compound 6 g: 377.1 → 320.1; testosterone: 289.3→ 97.1; propranolol: 260.1 → 182.8; caffeine: 195.2 → 138.1; acebutolol: 337.2 → 116.2, nicardipine: 480.2 → 315.0; verapamil: 455.4 → 165.1; amprenavir: 506.2 → 245.4; diclofenac: 296.1 → 213.7 or 296.2 → 215.3; eucatropine: 292.2 → 109.1; benfluorex: 352.1 → 230.3, and warfarin: 309.2 → 163.2

[2] = Stability in plasma; assay type: in vitro ADME; conditions: 37 °C
Description: Tested compounds (final concentration of 5 µM, 0.5% DMSO) were incubated for 4 h at 37 °C in human and mouse plasma, respectively. Aliquots were taken at different time points (0, 30, 120 and 240 min) and reaction was terminated by addition of a MeCN/MeOH (2:1) mixture, containing internal standard (diclofenac). Samples were then centrifuged (at 4500 rpm, at 4 °C, for 30 min) and resulting supernatants were subjected to LC-MS/MS analysis. The same procedure was followed for controls used in the assay: propranolol (both species), benfluorex (mouse) and eucatropine (human), respectively.
as §1

[3] = Kinetic solubility; assay type: physicochemical; conditions: aqueous buffer, kinetic from dmso stock, phosphate buffer 50 mM, pH 7.4, 1% DMSO, 37 °C
Description: Test compounds and assay controls (sulfaphenazole and α-naphtoflavone) were serially diluted in DMSO by factor 3.3x, 3x, 3.3x and 3x, resulting in a total of 5 different concentrations. Phosphate buffer (50 mM, pH 7.4) was spiked with diluted test compounds and controls with final concentration range in the assay as follows: 100, 30, 10, 3 and 1 µM (1% DMSO). Plate was then incubated by gentle shaking (200–300 rpm) for 1 h and 45 min at 37 °C. After additional15 min on room temperature (without shaking), plate absorbance at 620 nm was measured with microplate reader Tecan, Infinite F500 (total incubation time = 2 h).

[4] = tested on: HCC827; assay: BrdU proliferation assay, 3D cell culture; assay type: cell-based; conditions: Homo sapiens, HCC827, 3D cell culture, ±SD, N = 2
Description: Cells were grown in 96 well Perfecta 3 D hanging drop plates 5000 cell/well for 4 days until spheres were formed (and checked under the microscope). After sphere formation cells were treated with compounds followed by 72 h incubation. Cell viability assay was performed according to the manufacturer’s instruction, using CellTiter GLO 3 D for 3 D cell culture (Promega); cell incubation was 5 min on the shaker followed by 25 min incubation in the dark. Plates were read using PE EnVision luminescence.
(§2) Proliferation assay was performed using Cell Proliferation ELISA, BrdU (Sigma, St. Louis, MO, USA). Briefly, 48 h hours after compound addition, 10 µM of BrdU was added to each well and incubated for following 24 h. After incubation, single cell suspension was made for 3 D cell culture in the new 96 well plate. Plates were centrifuged and supernatants were removed from each plate (for 2 D and 3 D cell culture) followed by 60 min incubation at 60° C. The rest of the proliferation assay was performed according to the manufacturer instructions.
Calculation of IC50 data, curves and QC analysis is made by using Excel tools and GraphPadPrism software (La Jolla, CA), v. […] QC criteria parameters (Z', S:B, R2, HillSlope) were checked for every IC50 curve.

[5] = tested on: A549; assay: BrdU proliferation assay, 2D cell culture; assay type: cell-based; conditions: Homo sapiens, A549, 2D cell culture, ±SD, N = 2
Description: Cells were grown in 96 well cell star polystyrene plates. 10,000 cells/well were seeded in wells 4 h prior the treatment with different compounds concentrations and incubated for 72 h. A cell viability assay was performed according to the manufacturer’s instruction, using CellTiter 96 aqueous solution, MTS kit (Promega, Madison, WI, USA). After 0.5–2 h of cell incubation with MTS in 2 D cell culture, the plates were read using PE EnVision absorbance at 490 nm. The results for each of tested compounds are reported as growth percentages from two independent concentrations curves compared with the untreated control cells after drug exposure. Since we prefer homogeneous assays (mix and read procedures) and therefore MTS is more practical (one step less than MTT). MTS is more sensitive and accurate in comparison with MTT assay.
as §2
Calculation of IC50 data, curves and QC analysis is made by using Excel tools and GraphPadPrism software (La Jolla, CA), v. 5.03. In brief, individual concentration–effect curves are generated by plotting the logarithm of the tested concentration of tested compounds (X) versus corresponding percent inhibition values (Y) using least squares (ordinary) fit. […] QC criteria parameters (Z', S:B, R2, HillSlope) were checked for every IC50 curve.

[6] = human plasma, read-out: PPB % bound, Human (converted)
[7] = mouse plasma, read-out: PPB % bound, Mouse (converted)

Row | fraction unbound at 4 h, 5 µM [1, 6] | recovery at 4 h, 5 µM ([1]; human plasma) [%] | fraction unbound at 4 h, 5 µM [1, 7] | recovery at 4 h, 5 µM ([1]; mouse plasma) [%] | remaining at 4 h, 5 µM ([2]; human plasma) [%] | solubility kinetic at 2 h [3] [µM] | IC50 [4] [µM] | IC50 [5] [µM] | Compound | remaining at 4 h, 5 µM ([2]; mouse plasma) [%]
1 | 0.349 | 81 | 0.259 | 91 | 98 | 10 to 30 | > 100 | > 50 | c1ccc2c(-c3nc4ccc(C5=NCCCN5)cc4[nH]3)c[nH]c2c1 [Compound 6e, 2-(1H-Indol-3-yl)-5(6)–(3,4,5,6-tetrahydropyrimidin-1-ium-2-yl)benzimidazole chloride] | 84
2 | 0.19 | 91 | 0.12 | 102 | 106 | 30 to 100 | > 100 | > 50 | c1ccc2cc(-c3nc4cc(C5=NCCCN5)ccc4[nH]3)ccc2c1 [Compound 6f, 2-(Naphthalene-2-yl)-5(6)–(3,4,5,6-tetrahydropyrimidin-1-ium-2-yl)benzimidazole chloride] | 

Row | Compound | fraction unbound at 4 h, 5 µM [1, 6] | recovery at 4 h, 5 µM ([1]; human plasma) [%] | fraction unbound at 4 h, 5 µM [1, 7] | recovery at 4 h, 5 µM ([1]; mouse plasma) [%] | remaining at 4 h, 5 µM ([2]; human plasma) [%] | solubility kinetic at 2 h [3] [µM] | IC50 [4] [µM] | IC50 [5] [µM] | remaining at 4 h, 5 µM ([2]; mouse plasma) [%]
3 | c1ccc2c(c1)cc(-c1nc3cc(C4=NCCCN4)ccc3[nH]1)c1ccccc12 [Compound 6g, 2-(Phenanthrene-9-yl)-5(6)–(3,4,5,6-tetrahydropyrimidin-1-ium-2-yl)benzimidazole chloride] | 0.015 | 96 | 0.003 | 95 | 85 | 30 to 100 | > 100 | > 50 | 81
